Patent US20260364184A1, “COMPOUND BASED ON OXOISOINDOLINYL-SUBSTITUTED TETRAHYDROPYRIMIDINE-DIONE AND USE THEREOF” (GLUETACS THERAPEUTICS (SHANGHAI) CO., LTD., priority 2023, published 2026)
Where two headings read alike, the source gives them in different places.

Columns and labels:
[1] = tested on: Human Multiple myeloma cell line (MM.1S); assay: Inhibition of MM.1S cell proliferation (CellTiter luminescent viability); format: cell-based; settings: Homo sapiens, MM1.S, Table IG1, FAK inhibitor-based, 96 hours; for inhibition at 0.01 µM: 10 nM, read-out: Inhibition Rate at 10 nM (%); for inhibition at 0.5 µM: 500 nM, read-out: Inhibition Rate at 500 nM (%)
In short: (§1)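 Cells are seeded in 96-well plates, cultured at 37 °C, 5% CO2, and treated next day with 5-fold serial compound dilutions (stock series from 2000 μM; 0.5 μL into 100 μL medium). Viability is read by CellTiter-Meiluncell luminescence after the set exposure, and IC50 is taken from growth-inhibition curves.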

[2] = tested on: Human myeloid monocytic leukemia cell line (MV-4-11); assay: Inhibition of MV-4-11 cell proliferation (CellTiter luminescent viability); format: cell-based; settings: Homo sapiens, MV4-11; for inhibition at 0.01 µM: read-out: Inhibition Rate at 10 nM (%); for inhibition at 0.5 µM: read-out: Inhibition Rate at 500 nM (%)
In short: as §1

[3] = tested on: Human breast cancer cell line (MDA-MB-231); assay: Inhibition of MDA-MB-231 cell proliferation (CellTiter luminescent viability); format: cell-based; settings: for inhibition at 0.01 µM: read-out: Inhibition Rate at 10 nM (%); for inhibition at 0.5 µM: read-out: Inhibition Rate at 500 nM (%)
Procedure: The tumor cells used herein were cultured in a cell culture medium listed in table 3 at 37 °C in an incubator with 5% CO2. Prior to experimentation, all cell lines used were correctly identified by STR profiling, and tested negative for mycoplasma contamination using a mycoplasma detection kit through routine screenings.
The IC50 values of the compounds of the present disclosure (including the compounds in Table 1, Table 2, and Examples 1-468) were determined using the CellTiter-Meiluncell Luminescent Cell Viability Assay Kit from Dalian Meilun Biotech Co., Ltd. The detailed procedure is as follows: Tumor cells were seeded in 96-well cell culture plates at the densities specified in Table 4. On the following day, the test compounds of the present disclosure were subjected to serial dilution. The dilution can be performed according to one of the following two methods: • (1) The first dilution method: The test compounds of the present disclosure (including the compounds in Table 1, Table 2, and Examples 1-468) were subjected to 5-fold serial dilutions starting from a highest concentration of 2000 μM, resulting in a total of 9 concentrations from high to low (2000, 400, 80, 16, 3.2, 0.64, 0.128, 0.0256, 0.00512 μM). Subsequently, 0.5 μL of the test compound dilution was transferred into the 96-well plate containing the cells, with each well containing 100 μL of cell culture medium. […] Into the 96-well plate, the diluted test compounds and corresponding detection reagents were added, resulting in final test compound concentrations of 500 nM and 10 nM, respectively. The experimental procedure is described below using the diluted 2 μM test compound as an example.
0.5 μL of the aforementioned diluted compound of the present disclosure (including the compounds in Table 1, Table 2, and Examples 1-468) was added to the seeded cells in 100 μL of medium, yielding a final test compound concentration of 10 nM. After the cells were treated with the compounds of the present disclosure for a specified period, the cell viability assay reagent was added to the culture medium according to the kit's instructions to determine cell viability. […] All controls were treated using the same procedure as the compounds of the present disclosure. The growth inhibition curves for the compounds of the present disclosure were plotted using Prism GraphPad software, and the IC50 values were calculated therefrom.

[4] = tested on: Human lung cancer cell line (H292); assay: Inhibition of H292 cell proliferation (CellTiter luminescent viability); format: cell-based; settings: NCI-H292, H292 cell; for inhibition at 0.01 µM: 10 nM, read-out: Inhibition Rate at 10 nM (%); for inhibition at 0.5 µM: 500 nM, read-out: Inhibition Rate at 500 nM (%)
[5] = molecular target: T1, GSPT1 (Homo sapiens, UniProt P15170+Q96SW2); assay: Western blot degradation of GSPT1; format: cell-based; settings: hPBMC Cell; 24 hours
T1 construct: expression of target proteins in cells; endogenous in cells
In short: (§2)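 Cells treated with compound, lysed, and target protein detected by Western blot (SDS-PAGE, nitrocellulose transfer). DC50 taken as the concentration giving band grayscale half that of DMSO control, estimated by concentration-response fitting; remaining protein (%) from target band normalised to internal control band; degradation (%) = 1 − remaining.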

[6] = molecular target: T2, human Cereblon WT GST-tagged protein (CRBN) (Homo sapiens, UniProt Q96SW2); assay: CRBN binding by HTRF (Cereblon binding kit)
T2 construct: purchased CISBIO 64BDCRBNPEH
In short: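 GST-tagged human Cereblon WT was incubated 3 h at room temperature with compound, thalidomide-Re tracer and Eu anti-GST antibody. Final compound concentrations were 10 to 0.00064 µM (7 points) or 2 and 0.5 µM. Inhibition rate was calculated from HTRF 665/620 nm ratios versus solvent and blank controls.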

[7] = molecular target: T3, CK1α (Homo sapiens, UniProt P48729+Q96SW2); assay: Western blot degradation of CK1α; format: cell-based; settings: hPBMC Cell; 24 hours
T3 construct: expression of target proteins in cells; endogenous in cells
In short: as §2

[8] = molecular target: T4, IKZF2 (Homo sapiens, UniProt Q96SW2+Q9UKS7); assay: Western blot degradation of IKZF2; format: cell-based; settings: hPBMC Cell; 24 hours
T4 construct: expression of target proteins in cells; endogenous in cells
In short: as §2

[9] = molecular target: T5, WEE1 (Homo sapiens, UniProt P30291+Q96SW2); assay: Western blot degradation of WEE1; format: cell-based; settings: hPBMC Cell; 24 hours
T5 construct: expression of target proteins in cells; endogenous in cells
In short: as §2

[10] = molecular target: T6, IKZF3 (Homo sapiens, UniProt Q96SW2+Q9UKT9); assay: Western blot degradation of IKZF3; format: cell-based; settings: hPBMC Cell; 24 hours
T6 construct: expression of target proteins in cells; endogenous in cells
In short: as §2

[11] = molecular target: T7, IKZF1 (Homo sapiens, UniProt Q13422+Q96SW2); assay: Western blot degradation of IKZF1; format: cell-based; settings: hPBMC Cell; 24 hours
T7 construct: expression of target proteins in cells; endogenous in cells
In short: as §2

[12] = Table IG2, FAK inhibitor-based, MV-4-11, 10 nM, 96 hours
[13] = Table IG2, FAK inhibitor-based, MV-4-11, 500 nM, 96 hours
[14] = Table IG3, FAK inhibitor-based, MDA-MB-231, 10 nM, 96 hours
[15] = Table IG3, FAK inhibitor-based, MDA-MB-231, 500 nM, 96 hours

T1 sequence (P15170 whole entry): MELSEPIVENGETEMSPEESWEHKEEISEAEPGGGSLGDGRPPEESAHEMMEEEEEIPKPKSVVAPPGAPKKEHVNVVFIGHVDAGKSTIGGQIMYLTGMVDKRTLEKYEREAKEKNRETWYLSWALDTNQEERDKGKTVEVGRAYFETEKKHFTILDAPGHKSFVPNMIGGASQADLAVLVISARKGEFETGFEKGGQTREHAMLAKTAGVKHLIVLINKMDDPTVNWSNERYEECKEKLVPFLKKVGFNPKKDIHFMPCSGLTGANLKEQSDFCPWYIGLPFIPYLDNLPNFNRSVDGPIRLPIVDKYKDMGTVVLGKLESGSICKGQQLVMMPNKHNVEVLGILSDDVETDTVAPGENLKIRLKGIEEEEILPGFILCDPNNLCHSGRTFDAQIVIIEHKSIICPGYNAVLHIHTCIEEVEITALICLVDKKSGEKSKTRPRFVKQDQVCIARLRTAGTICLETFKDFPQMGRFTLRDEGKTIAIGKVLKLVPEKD
T1 sequence (Q96SW2 whole entry): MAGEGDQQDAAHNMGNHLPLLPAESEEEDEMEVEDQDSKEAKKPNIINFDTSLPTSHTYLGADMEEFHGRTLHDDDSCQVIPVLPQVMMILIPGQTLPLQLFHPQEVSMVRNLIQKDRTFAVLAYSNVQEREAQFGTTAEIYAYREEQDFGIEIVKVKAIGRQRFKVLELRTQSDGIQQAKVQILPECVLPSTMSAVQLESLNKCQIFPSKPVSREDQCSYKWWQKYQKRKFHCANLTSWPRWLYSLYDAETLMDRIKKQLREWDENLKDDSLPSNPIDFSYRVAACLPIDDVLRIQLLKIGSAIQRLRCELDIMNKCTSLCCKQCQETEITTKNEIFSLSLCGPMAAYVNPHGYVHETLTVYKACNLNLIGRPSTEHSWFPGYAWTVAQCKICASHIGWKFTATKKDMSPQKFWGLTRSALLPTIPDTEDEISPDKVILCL
T1 sequence (Q16531 whole entry partner): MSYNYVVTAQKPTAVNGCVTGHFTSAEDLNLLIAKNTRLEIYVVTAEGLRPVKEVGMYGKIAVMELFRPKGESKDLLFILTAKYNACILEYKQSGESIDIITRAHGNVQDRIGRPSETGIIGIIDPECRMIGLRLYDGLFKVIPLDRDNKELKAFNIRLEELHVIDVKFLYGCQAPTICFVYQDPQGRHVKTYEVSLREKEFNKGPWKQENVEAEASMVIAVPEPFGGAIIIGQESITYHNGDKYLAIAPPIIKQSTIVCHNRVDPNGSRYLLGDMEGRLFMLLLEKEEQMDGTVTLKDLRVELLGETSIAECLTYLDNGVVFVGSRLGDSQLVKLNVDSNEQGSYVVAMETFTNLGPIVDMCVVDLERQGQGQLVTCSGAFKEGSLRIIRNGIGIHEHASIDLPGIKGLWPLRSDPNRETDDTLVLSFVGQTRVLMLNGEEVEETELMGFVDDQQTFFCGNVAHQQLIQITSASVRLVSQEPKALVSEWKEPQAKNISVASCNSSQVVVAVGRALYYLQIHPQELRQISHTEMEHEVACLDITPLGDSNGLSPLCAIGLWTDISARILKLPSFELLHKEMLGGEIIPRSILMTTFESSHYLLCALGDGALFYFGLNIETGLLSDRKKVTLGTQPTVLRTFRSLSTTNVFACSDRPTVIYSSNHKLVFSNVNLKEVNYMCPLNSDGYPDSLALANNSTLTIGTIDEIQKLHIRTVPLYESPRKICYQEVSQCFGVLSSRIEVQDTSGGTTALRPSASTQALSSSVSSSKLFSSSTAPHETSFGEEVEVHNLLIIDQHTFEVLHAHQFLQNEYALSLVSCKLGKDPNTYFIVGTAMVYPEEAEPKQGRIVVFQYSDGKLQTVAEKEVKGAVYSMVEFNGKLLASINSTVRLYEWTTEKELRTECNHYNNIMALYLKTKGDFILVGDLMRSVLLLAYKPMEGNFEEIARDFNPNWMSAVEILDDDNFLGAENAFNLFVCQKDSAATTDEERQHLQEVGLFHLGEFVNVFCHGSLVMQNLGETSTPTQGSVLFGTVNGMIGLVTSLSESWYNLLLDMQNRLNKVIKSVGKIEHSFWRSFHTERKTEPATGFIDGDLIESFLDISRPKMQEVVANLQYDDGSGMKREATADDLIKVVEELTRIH
T5 sequence (P30291 whole entry): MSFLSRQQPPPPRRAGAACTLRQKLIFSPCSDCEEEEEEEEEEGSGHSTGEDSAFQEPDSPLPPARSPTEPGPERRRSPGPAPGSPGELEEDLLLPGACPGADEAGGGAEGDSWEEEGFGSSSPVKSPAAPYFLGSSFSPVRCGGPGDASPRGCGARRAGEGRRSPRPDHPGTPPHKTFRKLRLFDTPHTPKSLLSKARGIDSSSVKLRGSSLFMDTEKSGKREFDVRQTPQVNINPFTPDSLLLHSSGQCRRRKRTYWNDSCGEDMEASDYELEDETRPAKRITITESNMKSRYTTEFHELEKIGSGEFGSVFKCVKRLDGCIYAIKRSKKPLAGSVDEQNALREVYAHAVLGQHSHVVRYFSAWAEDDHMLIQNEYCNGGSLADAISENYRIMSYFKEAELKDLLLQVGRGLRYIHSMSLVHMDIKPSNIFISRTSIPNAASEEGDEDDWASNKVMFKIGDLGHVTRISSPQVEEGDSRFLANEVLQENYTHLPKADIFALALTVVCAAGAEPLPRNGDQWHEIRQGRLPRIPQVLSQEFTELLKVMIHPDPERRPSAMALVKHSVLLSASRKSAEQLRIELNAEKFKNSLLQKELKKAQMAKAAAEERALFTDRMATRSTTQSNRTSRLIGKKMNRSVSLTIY
T5 sequence (Q96SW2 whole entry): as the sequence (Q96SW2 whole entry) above
T5 sequence (Q16531 whole entry partner): as the sequence (Q16531 whole entry partner) above
T3 sequence (P48729 whole entry): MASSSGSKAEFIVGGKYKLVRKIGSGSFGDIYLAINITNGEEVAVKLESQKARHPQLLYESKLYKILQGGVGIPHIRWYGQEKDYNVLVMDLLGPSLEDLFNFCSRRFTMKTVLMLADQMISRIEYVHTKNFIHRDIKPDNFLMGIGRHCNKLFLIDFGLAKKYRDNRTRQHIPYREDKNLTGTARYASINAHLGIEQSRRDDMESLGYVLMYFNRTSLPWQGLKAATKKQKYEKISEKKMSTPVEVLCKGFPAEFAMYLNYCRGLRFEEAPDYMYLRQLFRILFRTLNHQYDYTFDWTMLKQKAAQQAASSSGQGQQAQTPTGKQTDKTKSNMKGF
T3 sequence (Q96SW2 whole entry): as the sequence (Q96SW2 whole entry) above
T3 sequence (Q16531 whole entry partner): as the sequence (Q16531 whole entry partner) above
T7 sequence (Q13422 whole entry): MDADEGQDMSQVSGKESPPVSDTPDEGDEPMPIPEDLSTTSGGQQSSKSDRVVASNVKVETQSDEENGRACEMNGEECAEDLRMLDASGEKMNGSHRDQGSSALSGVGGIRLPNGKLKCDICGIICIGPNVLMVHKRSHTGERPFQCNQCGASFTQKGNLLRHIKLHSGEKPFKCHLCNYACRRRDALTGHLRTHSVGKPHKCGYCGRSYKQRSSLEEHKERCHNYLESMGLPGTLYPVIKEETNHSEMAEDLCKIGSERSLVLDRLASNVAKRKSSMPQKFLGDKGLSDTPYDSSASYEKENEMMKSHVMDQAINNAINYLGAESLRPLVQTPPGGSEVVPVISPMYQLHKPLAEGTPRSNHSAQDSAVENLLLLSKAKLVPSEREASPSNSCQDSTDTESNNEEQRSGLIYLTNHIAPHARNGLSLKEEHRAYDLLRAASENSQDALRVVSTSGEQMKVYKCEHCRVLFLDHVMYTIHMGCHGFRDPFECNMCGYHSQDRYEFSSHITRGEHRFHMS
T7 sequence (Q96SW2 whole entry): as the sequence (Q96SW2 whole entry) above
T7 sequence (Q16531 whole entry partner): as the sequence (Q16531 whole entry partner) above
T6 sequence (Q9UKT9 whole entry): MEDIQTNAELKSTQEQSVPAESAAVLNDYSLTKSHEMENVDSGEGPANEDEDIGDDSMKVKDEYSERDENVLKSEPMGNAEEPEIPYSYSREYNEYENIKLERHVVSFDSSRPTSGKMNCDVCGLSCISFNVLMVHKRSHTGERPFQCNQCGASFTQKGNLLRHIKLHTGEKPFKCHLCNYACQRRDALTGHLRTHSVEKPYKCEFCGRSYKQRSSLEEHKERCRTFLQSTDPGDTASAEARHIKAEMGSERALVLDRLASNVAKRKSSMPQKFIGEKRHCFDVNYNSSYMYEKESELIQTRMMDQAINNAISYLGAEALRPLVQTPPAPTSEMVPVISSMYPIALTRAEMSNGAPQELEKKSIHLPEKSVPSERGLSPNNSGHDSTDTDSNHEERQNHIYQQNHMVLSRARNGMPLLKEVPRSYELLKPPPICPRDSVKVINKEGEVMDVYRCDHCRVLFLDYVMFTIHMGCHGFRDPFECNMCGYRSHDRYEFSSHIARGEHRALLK
T6 sequence (Q96SW2 whole entry): as the sequence (Q96SW2 whole entry) above
T6 sequence (Q16531 whole entry partner): as the sequence (Q16531 whole entry partner) above
T2 sequence (Q96SW2 whole entry): as the sequence (Q96SW2 whole entry) above

Row | SMILES | inhibition at 0.01 µM [1] [%] | inhibition at 0.5 µM [1] [%] | inhibition at 0.01 µM [2, 12] [%] | inhibition at 0.5 µM [2, 13] [%] | inhibition at 0.01 µM [3, 14] [%] | inhibition at 0.5 µM [3, 15] [%] | further results
1 | CN(c1cccc(CNc2nc(Nc3ccc(N4CCC(N5CCN(CC6CCN(c7cccc8c7C(=O)N(N7CCC(=O)NC7=O)C8=O)CC6)CC5)CC4)cc3)ncc2C(F)(F)F)c1)S(C)(=O)=O [GT-08248, N-(3-(((2-((4-(4-(4-((1-(2-(2,4-dioxotetrahydropyrimidin-1(2H)-yl)-1,3-dioxoisoindolin-4-yl)piperidin-4-yl)methyl)piperazin-1-yl)piperidin-1-yl)phenyl)amino)-5-(trifluoromethyl)pyrimidin-4-yl)amino)methyl)phenyl)-N-methylmethanesulfonamide] | 30 to 40 | 60 to 80 | 20 to 30 | 80 to 100 | 20 to 30 | 70 to 80 | –
2 | CN(Cc1ccc2c(c1)C(=O)N(N1CCC(=O)NC1=O)C2)C1CCN(c2ccc(Nc3ncc(C(F)(F)F)c(NCc4nccnc4N(C)S(C)(=O)=O)n3)cc2)CC1 [GT-08136, N-(3-(((2-((4-(4-(((2-(2,4-dioxotetrahydropyrimidin-1(2H)-yl)-3-oxoisoindolin-5-yl)methyl)(methyl)amino)piperidin-1-yl)phenyl)amino)-5-(trifluoromethyl)pyrimidin-4-yl)amino)methyl)pyrazin-2-yl)-N-methylmethanesulfonamide] | – | – | -5 to 0 | 80 to 100 | 20 to 30 | 50 to 60 | –
3 | CNC(=O)c1ccc(Nc2ncc(C(F)(F)F)c(NCc3nccnc3N(C)S(C)(=O)=O)n2)cc1 [Defactinib, reference compound] | 5 to 10 | 5 to 10 | 5 to 10 | 60 to 70 | 30 to 40 | 30 to 40 | –
4 | Nc1cccc2c1CN(C1CCC(=O)NC1=O)C2=O (centres unmarked) [Lenalidomide, lenalidomide, reference compound] | – | – | – | – | – | – | inhibition at 0.01 µM [4]: 15 to 20%; inhibition at 0.5 µM [4]: 0 to 5%; inhibition at 0.01 µM ([2]; MV-4-11 cell, 10 nM): 20 to 30%; inhibition at 0.5 µM ([2]; MV-4-11 cell, 500 nM): 10 to 15%; inhibition at 0.01 µM ([3]; MDA-MB-231 cell, 10 nM): 0 to 5%; inhibition at 0.5 µM ([3]; MDA-MB-231 cell, 500 nM): 0 to 5%
5 | CNC(=O)c1ccccc1Nc1cc(Nc2ccc(N3CCOCC3)cc2OC)ncc1C(F)(F)F [PND-1186, reference compound] | 5 to 10 | 20 to 30 | 5 to 10 | 60 to 70 | 30 to 40 | 40 to 50 | –
6 | NCc1ccc2c(c1)CN(N1CCC(=O)NC1=O)C2=O [GT-08118, 1-(5-(aminomethyl)-1-oxoisoindolin-2-yl)dihydropyrimidine-2,4(1H, 3H)-dione] | – | – | – | – | – | – | inhibition at 0.01 µM [4]: 20 to 30%; inhibition at 0.5 µM [4]: 20 to 30%; inhibition at 0.01 µM ([2]; MV-4-11 cell, 10 nM): 40 to 50%; inhibition at 0.5 µM ([2]; MV-4-11 cell, 500 nM): 50 to 60%; inhibition at 0.01 µM ([3]; MDA-MB-231 cell, 10 nM): 20 to 30%; inhibition at 0.5 µM ([3]; MDA-MB-231 cell, 500 nM): 20 to 30%
7 | O=C1CCN(N2Cc3cc(CBr)ccc3C2=O)C(=O)N1 [GT-05568, 1-(5-(bromomethyl)-1-oxoisoindolin-2-yl)dihydropyrimidine-2,4(1H, 3H)-dione] | – | – | – | – | – | – | Degradation of substrate protein GSPT1 (substrate protein remaining %) [5]: A (0%≤substrate protein remaining %≤80%); IC50 [6]: 1 to 1.5 µM; Degradation of substrate protein CK1α (substrate protein remaining %) [7]: A (0%≤substrate protein remaining %≤80%); Degradation of substrate protein IKZF2 (substrate protein remaining %) [8]: B (80%<substrate protein remaining %≤100%); Degradation of substrate protein WEE1 (substrate protein remaining %) [9]: A (0%≤substrate protein remaining %≤80%); Degradation of substrate protein IKZF3 (substrate protein remaining %) [10]: A (0%≤substrate protein remaining %≤80%); Degradation of substrate protein IKZF1 (substrate protein remaining %) [11]: A (0%≤substrate protein remaining %≤80%)
8 | CN(c1nccnc1CNc1nc(Nc2ccc(N3CCC(N4CCN(CC5CCN(c6cccc7c6C(=O)N(N6CCC(=O)NC6=O)C7=O)CC5)CC4)CC3)cc2)ncc1C(F)(F)F)S(C)(=O)=O [GT-08245, N-(3-(((2-((4-(4-(4-((1-(2-(2,4-dioxotetrahydropyrimidin-1(2H)-yl)-1,3-dioxoisoindolin-4-yl)piperidin-4-yl)methyl)piperazin-1-yl)piperidin-1-yl)phenyl)amino)-5-(trifluoromethyl)pyrimidin-4-yl)amino)methyl)pyrazin-2-yl)-N-methylmethanesulfonamide] | 5 to 10 | 80 to 100 | 20 to 30 | 80 to 100 | 30 to 40 | 80 to 100 | –
9 | O=C1CCN(N2C(=O)c3ccc(N4C5CNCC4C5)cc3C2=O)C(=O)N1 [GT-05588, 5-(3,6-diazabicyclo[3.1.1]heptan-6-yl)-2-(2,4-dioxotetrahydropyrimidin-1(2H)-yl)isoindoline-1,3-dione] | – | – | – | – | – | – | Degradation of substrate protein GSPT1 (substrate protein remaining %) [5]: B (80%<substrate protein remaining %≤100%); Degradation of substrate protein CK1α (substrate protein remaining %) [7]: B (80%<substrate protein remaining %≤100%); Degradation of substrate protein IKZF2 (substrate protein remaining %) [8]: B (80%<substrate protein remaining %≤100%); Degradation of substrate protein WEE1 (substrate protein remaining %) [9]: B (80%<substrate protein remaining %≤100%); Degradation of substrate protein IKZF3 (substrate protein remaining %) [10]: A (0%≤substrate protein remaining %≤80%); Degradation of substrate protein IKZF1 (substrate protein remaining %) [11]: B (80%<substrate protein remaining %≤100%)
